Read-outs that look alike come from different tables or passages of the source. Values belong to the compound of their own block, whether it stands above or below them.
Assays:
DNA-PK = DNA-PK (Homo sapiens (Human), UniProt P78527); test: DNA-PK assay (biochemical), flashplate 33P-ATP kinase assay
Method: A) DNA-PK Assay (Biochemical)
The kinase assay was carried out in streptavidin-coated […] microtitre flashplates. […] The reaction was stopped using 50 μl/well of 200 mM EDTA. After incubation for a further 30 min at room temperature, the liquid was removed. Each well was washed three times with 100 μl of 0.9% saline solution. A nonspecific reaction (blank value) was determined using 10 μM of an innate kinase inhibitor. The radioactivity measurement was carried out using a TopCount. IC50 values were calculated in RS1.

[1] = target: DNA-PK phosphorylation at serine 2056 (Homo sapiens (Human), UniProt P78527); test: DNA-PK phosphorylation at serine 2056 (cellular), bleomycin-treated HCT116 cells, ELISA; type: cell-based
Method: HCT116 cells were cultivated at 37° C. and 10% CO2 in MEM alpha medium with 10% of foetal calf serum and 2 mM glutamine. The cells were detached from the base of the culture vessels with the aid of trypsin/EDTA, centrifuged off in centrifuge tubes, taken up in fresh medium, and the cell density was determined. 100,000 cells were sown in 1 ml of culture medium per cavity of a 24-well cell culture plate and cultivated overnight. Next day, 10 μM bleomycin (DNA intercalator and inductor of DNA double-strand breaks) and test substances in fresh culture medium were added to the cells, and these were cultivated for a further six hours. […] The 96-well ELISA plates were subsequently treated with a detection antibody (Abcam ab79444: total DNA-PK) and a streptavidin-HRP conjugate. The development of the enzymatic reaction was carried out with the aid of a chemiluminescent reagent, the chemiluminescence was measured with the aid of a Mithras LB940. The signals with the phospho-DNA-PK-specific antibody were standardised to the signal with the antibody against the total protein DNA-PKc. […] The DMSO control was used as blank.

Kv11.1 (hERG) = Kv11.1 (hERG) (Homo sapiens (Human), UniProt Q12809); test: Kv11.1 (hERG) ion channel activity (patch clamp assay), HEK293 cells transfected with hERG gene
Sequence of Kv11.1 (hERG) (Q12809 whole entry): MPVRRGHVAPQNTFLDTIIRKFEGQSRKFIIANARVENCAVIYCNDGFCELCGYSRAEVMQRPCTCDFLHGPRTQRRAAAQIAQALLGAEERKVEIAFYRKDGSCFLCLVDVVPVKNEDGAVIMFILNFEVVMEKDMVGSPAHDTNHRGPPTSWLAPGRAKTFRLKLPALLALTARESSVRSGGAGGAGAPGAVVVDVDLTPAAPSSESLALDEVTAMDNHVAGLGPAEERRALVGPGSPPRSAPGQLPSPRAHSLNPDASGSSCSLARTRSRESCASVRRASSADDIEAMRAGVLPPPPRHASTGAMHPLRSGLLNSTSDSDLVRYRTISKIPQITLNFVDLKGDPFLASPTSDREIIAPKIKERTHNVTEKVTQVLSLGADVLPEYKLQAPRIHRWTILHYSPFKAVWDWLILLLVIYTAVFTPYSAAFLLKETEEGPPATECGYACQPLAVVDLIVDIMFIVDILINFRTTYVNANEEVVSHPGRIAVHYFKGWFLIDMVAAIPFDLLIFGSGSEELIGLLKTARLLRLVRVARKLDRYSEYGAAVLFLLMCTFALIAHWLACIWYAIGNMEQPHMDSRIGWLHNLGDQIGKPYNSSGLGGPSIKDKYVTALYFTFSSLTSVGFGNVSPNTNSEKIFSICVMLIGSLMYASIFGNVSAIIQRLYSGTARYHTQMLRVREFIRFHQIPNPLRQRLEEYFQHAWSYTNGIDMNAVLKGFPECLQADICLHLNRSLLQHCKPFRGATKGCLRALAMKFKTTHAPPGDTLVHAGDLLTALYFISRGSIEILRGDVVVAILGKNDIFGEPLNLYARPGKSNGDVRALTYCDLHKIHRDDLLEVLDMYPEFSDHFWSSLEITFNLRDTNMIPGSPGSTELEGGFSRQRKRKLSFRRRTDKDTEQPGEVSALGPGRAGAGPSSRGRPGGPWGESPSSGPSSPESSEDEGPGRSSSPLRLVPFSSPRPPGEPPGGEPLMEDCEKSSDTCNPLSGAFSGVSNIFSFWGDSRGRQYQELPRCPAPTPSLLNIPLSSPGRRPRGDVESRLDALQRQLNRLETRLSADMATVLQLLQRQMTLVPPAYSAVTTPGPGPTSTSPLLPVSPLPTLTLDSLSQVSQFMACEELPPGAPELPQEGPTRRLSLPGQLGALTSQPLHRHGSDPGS

[2] = Table 5, HCT116 cells, read-out: IC50 pDNA-PK
[3] = cellular, HCT116 cells, 10 μM bleomycin, six hours, read-out: IC50 pDNA-PK
[4] = read-out: Ki [Kv1.11 hERG], patch clamp, HEK293 transfected with hERG gene
[5] = Ki [Kv1.11 hERG], hERG patch clamp assay (cells without asterisk)
[6] = Ki [Kv1.11 hERG], patch clamp, HEK293 transfected with hERG gene
[7] = read-out: Ki [Kv1.11 hERG], Table 5

Compound: OC(c1ccc(F)c(-c2ncnc3cc(N4CCOCC4)sc23)c1)c1nccnc1Cl (single isomer, unassigned) [Example 23, (3-Chloro-pyrazin-2-yl)-[4-fluoro-3-(6-morpholin-4-yl-thieno-[3,2-d}pyrimidin-4-yl)-phenyl]methanol]
- IC50 (DNA-PK; enzymatic, 5 μM ATP): 0.007 to 0.03 µM
- IC50 [1, 3]: 5 to 10 µM
- Ki (Kv11.1 (hERG); [4]): > 25 µM

Compound: [2H]C1([2H])OC([2H])([2H])C([2H])([2H])N(c2ccc3c(-c4cc(C(O)c5ccc(OC)nn5)c(Cl)cc4F)ncnc3c2)C1([2H])[2H] (single isomer, unassigned) [Example 239, [2-Chloro-4-fluoro-5-[7-(2,2.3,3,5,5,6,6-octadeuteriomorpholin-4-yl)quinazolin-4-yl]phenyl]-(6-methoxypyridazin-3-yl)methanol]
- Ki (Kv11.1 (hERG); [5]): 15 to 25 µM

Compound: COc1ccc(C(O)c2cc(-c3ncnc4cc(N5CCOCC5)ccc34)c(F)cc2F)nn1 (stereo not shown) [Example 131, [2,4-Difluoro-5-(7-morpholin-4-yl-quinazolin-4-yl)-phenyl]-(6-methoxy-pyridazin-3-yl)-methanol]
- Ki (Kv11.1 (hERG); [6]): 15 to 25 µM

Compound: COc1ccc([C@H](O)c2cc(-c3ncnc4cc(N5CCOCC5)ccc34)c(F)cc2Cl)nn1 [Example 135, (R)-[2-Chloro-4-fluoro-5-(7-morpholin-4-yl-quinazolin-4-yl)-phenyl]-(6-methoxy-pyridazin-3-yl)-methanol]
- Ki (Kv11.1 (hERG); [4]): > 25 µM

Compound: COc1ccc([C@@H](O)c2cc(-c3ncnc4cc(N5CCOCC5)ccc34)c(F)cc2Cl)nn1 [Example 136, (S)-[2-Chloro-4-fluoro-5-(7-morpholin-4-yl-quinazolin-4-yl)-phenyl]-(6-methoxy-pyridazin-3-yl)-methanol]
- Ki (Kv11.1 (hERG); [4]): > 25 µM

Compound: COc1ccc(C(O)c2cc(-c3ncnc4cc(N5CCOCC5)ccc34)c(F)cc2Cl)nn1 (stereo not shown) [Example 137, [2-Chloro-4-fluoro-5-(7-morpholin-4-ylquinazolin-4-yl)-phenyl]-(6-methoxy-pyridazin-3-yl)-methanol]
- Ki (Kv11.1 (hERG); [6]): 10 to 15 µM

Compound: OC(c1ccc(-c2ncnc3cc(N4CCOCC4)ccc23)s1)c1nccs1 (stereo not shown) [Example 147, [5-(7-Morpholin-4-ylquinazolin-4-yl)-thiophen-2-yl]-thiazol-2-ylmethanol]
- Ki (Kv11.1 (hERG); Ki [Kv1.11 hERG], Table 5): 10 to 15 µM

Compound: OCc1csc(C(O)c2cc(-c3ncnc4cc(N5C6CCC5COC6)ccc34)c(F)cc2Cl)n1 (stereo not shown) [Example 187, {2-Chloro-4-fluoro-5-[7-(3-oxa-8-aza-bicyclo[3.2.1]oct-8-yl)quinazolin-4-yl]-phenyl}-(4-hydroxy-methylthiazol-2-yl)-methanol]
- IC50 ([1]; IC50 pDNA-PK, Table 5, HCT116 cells): 10 to 30 µM
- Ki (Kv11.1 (hERG); Ki [Kv1.11 hERG], Table 5): 15 to 25 µM

Compound: [2H]c1c(N2CCOCC2)cc2ncnc(-c3cc(C(O)c4ccc(OC)nn4)c(Cl)cc3F)c2c1[2H] (stereo not shown) [Example 225, [2-Chloro-5-(5,6-dideuterio-7-morpholinylquinazolin-4-yl)-4-fluorophenyl]-(6-methoxypyridazin-3-yl)methanol]
- Ki (Kv11.1 (hERG); [5]): > 25 µM

Compound: NC(=O)C(c1cc(-c2ncnc3cc(N4CCOCC4)ccc23)c(F)cc1Cl)c1ncnn2cccc12 (stereo not shown) [Example 309, 2-[2-Chloro-4-fluoro-5-(7-morpholin-4-yl-quinazolin-4-yl)-phenyl]-2-[3H-pyrrolo[2,1-f][1,2,4]-triazin-(4E)-ylidene]-acetamide]
- IC50 ([1]; cellular DNA-PK phosphorylation at serine 2056, HCT116, read-out: IC50 pDNA-PK): 10 to 30 µM
- Ki (Kv11.1 (hERG); read-out: Ki [Kv1.11 hERG], hERG patch clamp assay (cells without asterisk)): < 10 µM

Second part, led by results:

- IC50 (DNA-PK; Table 5): < 0.003 µM
- IC50 [1, 2]: 0.5 to 5 µM
Compound: OC(c1ccc(F)c(-c2ncnc3cc(N4CCOCC4)sc23)c1)c1nccs1 (racemic) [Example 144, [4-fluoro-3-(6-morpholin-4-ylthieno[3,2-d]pyrimidin-4-yl)phenyl]thiazol-2-ylmethanol]
- Ki (Kv11.1 (hERG); human, HEK293 cells stably transfected with the hERG gene, Ki [Kv1.11 hERG], Table 5): 15 to 25 µM

- IC50 (DNA-PK; enzymatic, 5 μM ATP): 0.007 to 0.03 µM
- IC50 [1, 3]: 5 to 10 µM
Compound: OC(c1ccc2nccn2n1)c1cc(-c2ncnc3cc(N4CCOCC4)ccc23)c(F)cc1F (single isomer, unassigned) [Example 20, [2,4-Difluoro-5-(7-morpholin-4-yl-quinazolin-4-yl)phenyl]-imidazo[1,2-b]pyridazin-6-ylmethanol]
- Ki (Kv11.1 (hERG); [4]): > 25 µM

- IC50 (DNA-PK; enzymatic, 5 μM ATP): < 0.003 µM
- IC50 [1, 3]: < 0.5 µM
Compound: OC(c1ccc2nccn2n1)c1cc(-c2ncnc3cc(N4CCOCC4)ccc23)c(F)cc1F (single isomer, unassigned) [Example 21, [2,4-Difluoro-5-(7-morpholin-4-yl-quinazolin-4-yl)phenyl]-imidazo[1,2-b]pyridazin-6-ylmethanol]
- Ki (Kv11.1 (hERG); [4]): > 25 µM

- IC50 [1, 3]: < 0.5 µM
Compound: OC(c1ccc(OC2COC2)nn1)c1cc(-c2ncnc3cc(N4CCOCC4)ccc23)c(F)cc1Cl (stereo not shown) [Example 100, [2-Chloro-4-fluoro-5-(7-morpholin-4-yl-quinazolin-4-yl)-phenyl]-[6-(oxetan-3-yloxy)pyridazin-3-yl)-methanol]
- Ki (Kv11.1 (hERG); [6]): 10 to 15 µM

- IC50 (DNA-PK; Table 5): > 0.03 µM
Compound: CC(O)(c1cncc(-c2ncnc3cc(N4CCOCC4)ccc23)c1)c1nccs1 (stereo not shown) [Example 138, 1-[5-(7-Morpholin-4-ylquinazolin-4-yl)-pyridin-3-yl]-1-thiazol-2-ylethanol]
- Ki (Kv11.1 (hERG); Ki [Kv1.11 hERG], Table 5): 15 to 25 µM

- IC50 [1, 2]: 0.5 to 5 µM
Compound: OC(c1ccc(F)c(-c2ncnc3cc(N4CCOCC4)sc23)c1)c1nccs1 (stereo not shown) [Example 145, [4-fluoro-3-(6-morpholin-4-ylthieno[3,2-d]pyrimidin-4-yl)phenyl]thiazol-2-ylmethanol]
- Ki (Kv11.1 (hERG); [7]): > 25 µM

- IC50 (DNA-PK; Table 5): > 0.03 µM
Compound: OC(c1cccc(-c2ncnc3cc(N4CCOCC4)ccc23)c1)c1nccs1 (stereo not shown) [Example 149, [3-(7-Morpholin-4-ylquinazolin-4-yl)-phenyl]thiazol-2-yl-methanol]
- Ki (Kv11.1 (hERG); [7]): > 25 µM

- IC50 (DNA-PK; Table 5): > 0.03 µM
Compound: CC(O)(c1cccc(-c2ncnc3cc(N4CCOCC4)ccc23)c1)c1nccs1 (stereo not shown) [Example 154, 1-[3-(7-Morpholin-4-ylquinazolin-4-yl)-phenyl]-1-thiazol-2-ylethanol]
- Ki (Kv11.1 (hERG); Ki [Kv1.11 hERG], Table 5): 15 to 25 µM

- IC50 (DNA-PK; Table 5): > 0.03 µM
Compound: Cc1nc(C(O)c2cc(-c3ncnc4cc(N5CCOCC5)ncc34)cnc2F)sc1C (stereo not shown) [Example 192, (4,5-Dimethyl-thiazol-2-yl)-[2-fluoro-5-(7-morpholin-4-yl-pyrido[4,3-d}-pyrimidin-4-yl)-pyridin-3-yl]-methanol]
- Ki (Kv11.1 (hERG); Ki [Kv1.11 hERG], Table 5): 10 to 15 µM

- IC50 (DNA-PK; Table 5): 0.007 to 0.03 µM
Compound: Cc1nc(C(O)c2cc(-c3ncnc4cc(N5CCOCC5)ccc34)cnc2F)sc1C (stereo not shown) [Example 194, (4,5-Dimethyl-thiazol-2-yl)-[2-fluoro-5-(7-morpholin-4-yl-quinazolin-4-yl)-pyridin-3-yl]-methanol]
- Ki (Kv11.1 (hERG); [7]): > 25 µM

- IC50 (DNA-PK; Table 5): > 0.03 µM
Compound: Cc1csc(C(O)c2cnc(F)c(-c3ncnc4cc(N5CCOCC5)ncc34)c2)n1 (stereo not shown) [Example 195, [6-Fluoro-5-(7-morpholin-4-yl-pyrido[4,3-d}-pyrimidin-4-yl)-pyridin-3-yl]-(4-methyl-thiazol-2-yl)-methanol]
- Ki (Kv11.1 (hERG); Ki [Kv1.11 hERG], Table 5): 15 to 25 µM

- IC50 (DNA-PK; Table 5): 0.007 to 0.03 µM
Compound: CC(C)(C)n1cc(C(O)c2cc(-c3ncnc4cc(N5CCOCC5)ccc34)cnc2F)cn1 (stereo not shown) [Example 198, (1-tert-Butyl-1H-pyrazol-4-yl)-[2-fluoro-5-(7-morpholin-4-yl-quinazolin-4-yl)-pyridin-3-yl]-methanol]
- Ki (Kv11.1 (hERG); [7]): > 25 µM

- IC50 (DNA-PK; Table 5): > 0.03 µM
Compound: Cc1nc(C(O)c2cc(-c3ncnc4cc(N5CCOCC5)ccc34)cnc2F)sc1C (stereo not shown) [Example 206, (4,5-Dimethyl-thiazol-2-yl)-[2-fluoro-5-(7-morpholin-4-yl-quinazolin-4-yl)-pyridin-3-yl]-methanol]
- Ki (Kv11.1 (hERG); Ki [Kv1.11 hERG], Table 5): 15 to 25 µM
